Data on three compounds can be found in article PMC7445162, “De novo design of an intercellular signaling toolbox for multi-channel cell–cell communication and biological computation” (Nature Communications, 2020).

Read-outs that look alike come from different tables or passages of the source.

One assay addresses T1, PhlF (Pseudomonas protegens, UniProt Q4K422).
T1 construct: expressed in E. coli DH5alpha receiver cells; PphlF-sfGFP reporter
T1 sequence (Q4K422 1-200): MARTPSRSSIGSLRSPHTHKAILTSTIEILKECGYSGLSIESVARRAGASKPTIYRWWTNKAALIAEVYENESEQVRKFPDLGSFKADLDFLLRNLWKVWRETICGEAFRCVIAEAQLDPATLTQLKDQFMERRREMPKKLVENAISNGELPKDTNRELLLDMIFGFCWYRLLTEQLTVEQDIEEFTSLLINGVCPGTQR
Put plainly: cell-based. The conditions noted are these: synthetic pure signal, replicate. Also on record: species or system Escherichia coli DH5alpha; E. coli receiver cells, GFP reporter under aTF-responsive promoter, flow cytometry, dose-response with pure synthetic signal molecules. From the text: (§1) IV-HSL was chemically synthesized (Supplementary Fig. 21).

Assay [1] concerns the target T2, LuxR (Aliivibrio fischeri, UniProt P12746).
T2 construct: expressed in E. coli DH5alpha receiver cells; GFP reporter under the Plux* promoter
T2 sequence (P12746 1-250): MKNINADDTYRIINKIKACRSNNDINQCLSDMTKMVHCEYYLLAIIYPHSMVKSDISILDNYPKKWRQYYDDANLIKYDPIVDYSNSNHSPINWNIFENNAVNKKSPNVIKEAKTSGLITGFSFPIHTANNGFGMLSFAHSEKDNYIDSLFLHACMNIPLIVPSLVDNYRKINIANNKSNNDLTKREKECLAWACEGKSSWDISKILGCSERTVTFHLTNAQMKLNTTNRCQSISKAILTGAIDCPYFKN
Kind of assay: cell-based. The conditions noted are these: synthetic pure signal, replicate. Also on record: species or system Escherichia coli DH5alpha; E. coli receiver cells, GFP reporter under aTF-responsive promoter, flow cytometry, dose-response with pure synthetic signal molecules.
Source text: as §1

In assay [2] the target is T2, LuxR. Put plainly: GFP reporter dose-response in E. coli, flow cytometry. In kind it is cell-based, Escherichia coli. Particulars: chemically pure signal molecule; M9 medium, 37 °C, 12 h; transcriptional reporter. (A flow cytometer gives signals particle by particle.)
In assay [3] the target is T3, FdeR (Herbaspirillum seropedicae, UniProt D8J0W4).
T3 construct: gene nodD; expressed in E. coli DH5alpha receiver cells; GFP reporter under the cognate promoter
T3 sequence (D8J0W4 1-309): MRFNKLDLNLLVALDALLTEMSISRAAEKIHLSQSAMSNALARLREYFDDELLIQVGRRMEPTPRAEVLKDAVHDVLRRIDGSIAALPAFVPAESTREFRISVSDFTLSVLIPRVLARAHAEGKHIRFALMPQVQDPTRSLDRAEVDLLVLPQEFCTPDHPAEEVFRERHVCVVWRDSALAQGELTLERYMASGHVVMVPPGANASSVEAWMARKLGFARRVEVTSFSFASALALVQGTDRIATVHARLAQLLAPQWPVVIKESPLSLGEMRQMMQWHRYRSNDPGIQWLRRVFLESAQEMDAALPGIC
Put plainly: cell-based. The arrangement: species or system Escherichia coli DH5alpha; E. coli receiver cells, GFP reporter under aTF-responsive promoter, flow cytometry, dose-response with pure synthetic signal molecules. The conditions noted are these: synthetic pure signal, replicate.
Source text: as §1

Assay [4] deals with T3, FdeR. Put plainly: GFP reporter dose-response in E. coli, flow cytometry. The class given is cell-based, Escherichia coli.

On to `CC(=O)c1c(O)cc(O)c(C(C)=O)c1O` [DAPG, 2,4-diacetylphloroglucinol], for which the EC50 at PhlF (Synthetic [column B]) was determined as 18.2 µM; on PhlF (Synthetic [column C]) it was 17.7 µM; at PhlF (Synthetic [column D]), 16.3 µM.

Consider `CCCC(=O)CC(=O)N[C@H]1CCOC1=O` [3OC6, 3-oxo-C6-HSL], for which the EC50 at LuxR [1] (Synthetic [column B]) was 0.0108 µM; on LuxR [1] (Synthetic [column C]) it was 0.0329 µM; at LuxR [1] (Synthetic [column D]), 0.0148 µM; at LuxR [2], 0.02 µM.

Take `O=C1C[C@@H](c2ccc(O)cc2)Oc2cc(O)cc(O)c21` [NG, naringenin]: the EC50 on FdeR [3] (Synthetic [column B]) came out at 12.1 µM; on FdeR [3] (Synthetic [column C]), 93.8 µM; at FdeR [3] (Synthetic [column D]), 47.3 µM; at FdeR [4], 51 µM.

Broadly, the EC50 is the concentration giving half of the maximal effect.
